Measurements taken from patent US6706663B2, “Herbicidal 3-heterocyclic substituted benzisothiazole and benzisoxazole compounds” (Wyeth, priority 2000, dated 2004).

Legend:
ZEAMX (Corn, Field) = experiment: Postemergence herbicidal evaluation; assay type: in vivo, Zea mays, L.
How it was run: (§1)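 Visual 0–9 injury scores versus control plants, covering stand, vigour, malformation, size, chlorosis and general appearance, taken four to five weeks post-spray and averaged over replicate tests. Plants were sprayed at roughly two weeks old and held on greenhouse benches.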

GALAP (Galium aparine) [1] = experiment: Preemergence herbicidal evaluation; assay type: in vivo; settings: preemergence, rated 4-5 weeks after treatment
How it was run: (§2)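 Rating 0–9, visual, vs control; 4–5 wk after spraying seeded cups with compound in aq. acetone; conventional greenhouse care.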

[2] = test system: ECHCG (Echinochloa crus-galli); experiment: Preemergence herbicidal evaluation; assay type: in vivo, (L.) Beau; settings: preemergence, rated 4-5 weeks after treatment
How it was run: as §2

SETVI (Setaria viridis) = experiment: Preemergence herbicidal evaluation; assay type: in vivo, (L.) Beau; settings: preemergence, rated 4-5 weeks after treatment
How it was run: as §2

GALAP (Galium aparine) [3] = experiment: Postemergence herbicidal evaluation; assay type: in vivo
How it was run: as §1

[4] = test system: GLXMAW (Soybean, Williams); experiment: Postemergence herbicidal evaluation; assay type: in vivo, Glycine max, (L.) Merr. cv Williams
How it was run: as §1

ORYSAT (Rice, Tebonnet) [5] = experiment: Preemergence herbicidal evaluation; assay type: in vivo, Oryza sativa, (L.) Tebonnet; settings: preemergence, rated 4-5 weeks after treatment
[6] = test system: CASOB (Cassia obtusifolia); experiment: Postemergence herbicidal evaluation; assay type: in vivo, L.
How it was run: as §1

[7] = test system: AMBEL (Ambrosia artemisifolia); experiment: Postemergence herbicidal evaluation; assay type: in vivo, L.
How it was run: as §1

[8] = test system: CHEAL (Chenopodium album); experiment: Postemergence herbicidal evaluation; assay type: in vivo, L.
How it was run: as §1

[9] = test system: ABUTH (Abutilon theophrasti); experiment: Postemergence herbicidal evaluation; assay type: in vivo, Medic.
How it was run: as §1

ORYSAT (Rice, Tebonnet) [10] = experiment: Postemergence herbicidal evaluation; assay type: in vivo, Oryza sativa, (L.) Tebonnet
How it was run: as §1

[11] = test system: TRZAWR (Wheat, Winter, cv Riband); experiment: Preemergence herbicidal evaluation; assay type: in vivo, Triticum aestivum; settings: preemergence, rated 4-5 weeks after treatment
How it was run: as §2

[12] = test system: IPOHE (Ipomoea hederacea); experiment: Postemergence herbicidal evaluation; assay type: in vivo, (L.) Jacq.
How it was run: as §1

Question: What does the source list for “1-methyl-3-[3-(1,3-oxathiolan-2-yl)-1,2-benzisothiazol-5-yl]-6-(trifluoromethyl)uracil S′,S′-dioxide [Compound 32]”?
Answer: Postemergence herbicidal rating, ZEAMX (ZEAMX (Corn, Field); rate 0.0320 kg/ha): 5.5; Postemergence herbicidal rating, ZEAMX (ZEAMX (Corn, Field); rate 0.0620 kg/ha): 5.5; GALAP preemergence herbicidal rating (GALAP (Galium aparine) [1]; Rate 0.0620 kg/ha): 9.0; GALAP preemergence herbicidal rating (GALAP (Galium aparine) [1]; Rate 0.1250 kg/ha): 9.0; GALAP preemergence herbicidal rating (GALAP (Galium aparine) [1]; Rate 0.2500 kg/ha): 9.0; ECHCG preemergence herbicidal rating ([2]; Rate 0.0620 kg/ha): 6.5; ECHCG preemergence herbicidal rating ([2]; Rate 0.1250 kg/ha): 9.0; ECHCG preemergence herbicidal rating ([2]; Rate 0.2500 kg/ha): 9.0; SETVI preemergence herbicidal rating (SETVI (Setaria viridis); Rate 0.0620 kg/ha): 9.0; SETVI preemergence herbicidal rating (SETVI (Setaria viridis); Rate 0.1250 kg/ha): 9.0; SETVI preemergence herbicidal rating (SETVI (Setaria viridis); Rate 0.2500 kg/ha): 9.0; Postemergence herbicidal rating, GALAP (GALAP (Galium aparine) [3]; rate 0.0320 kg/ha): 2.0; Postemergence herbicidal rating, GALAP (GALAP (Galium aparine) [3]; rate 0.0620 kg/ha): 6.0; Postemergence herbicidal rating, GLXMAW ([4]; rate 0.0320 kg/ha): 8.0; Postemergence herbicidal rating, GLXMAW ([4]; rate 0.0620 kg/ha): 9.0; ORYSAT preemergence herbicidal rating (ORYSAT (Rice, Tebonnet) [5]; Rate 0.0620 kg/ha): 5.0; ORYSAT preemergence herbicidal rating (ORYSAT (Rice, Tebonnet) [5]; Rate 0.1250 kg/ha): 7.5; ORYSAT preemergence herbicidal rating (ORYSAT (Rice, Tebonnet) [5]; Rate 0.2500 kg/ha): 8.5; Postemergence herbicidal rating, CASOB ([6]; rate 0.0320 kg/ha): 7.0; Postemergence herbicidal rating, CASOB ([6]; rate 0.0620 kg/ha): 9.0; Postemergence herbicidal rating, AMBEL ([7]; rate 0.0320 kg/ha): 9.0; Postemergence herbicidal rating, AMBEL ([7]; rate 0.0620 kg/ha): 9.0; Postemergence herbicidal rating, CHEAL ([8]; rate 0.0320 kg/ha): 9.0; Postemergence herbicidal rating, CHEAL ([8]; rate 0.0620 kg/ha): 9.0; Postemergence herbicidal rating, ABUTH ([9]; rate 0.0320 kg/ha): 9.0; Postemergence herbicidal rating, ABUTH ([9]; rate 0.0620 kg/ha): 9.0; Postemergence herbicidal rating, ORYSAT (ORYSAT (Rice, Tebonnet) [10]; rate 0.0320 kg/ha): 5.0; Postemergence herbicidal rating, ORYSAT (ORYSAT (Rice, Tebonnet) [10]; rate 0.0620 kg/ha): 5.5; TRZAWR preemergence herbicidal rating ([11]; Rate 0.0620 kg/ha): 7.0; TRZAWR preemergence herbicidal rating ([11]; Rate 0.1250 kg/ha): 8.0; TRZAWR preemergence herbicidal rating ([11]; Rate 0.2500 kg/ha): 9.0; Postemergence herbicidal rating, IPOHE ([12]; rate 0.0320 kg/ha): 9.0; Postemergence herbicidal rating, IPOHE ([12]; rate 0.0620 kg/ha): 9.0

Question: Which results are given for `CCOC(=O)C1CS[C@H](c2nsc3ccc(-n4c(=O)cc(C(F)(F)F)n(C)c4=O)cc23)N1` (stereo partly drawn) [Compound 2, ethyl (R)-2-[5-[3,6-dihydro-3-methyl-2,6-dioxo-4-(trifluoromethyl)-1(2H)-pyrimidinyl]-1,2-benzisothiazol-3-yl]-4-thiazolidinecarboxylate]?
Answer: Postemergence herbicidal rating, ZEAMX (ZEAMX (Corn, Field); rate 0.0320 kg/ha): 7.0; Postemergence herbicidal rating, ZEAMX (ZEAMX (Corn, Field); rate 0.0620 kg/ha): 7.0; GALAP preemergence herbicidal rating (GALAP (Galium aparine) [1]; Rate 0.0620 kg/ha): 5.0; GALAP preemergence herbicidal rating (GALAP (Galium aparine) [1]; Rate 0.1250 kg/ha): 9.0; GALAP preemergence herbicidal rating (GALAP (Galium aparine) [1]; Rate 0.2500 kg/ha): 9.0; ECHCG preemergence herbicidal rating ([2]; Rate 0.0620 kg/ha): 2.5; ECHCG preemergence herbicidal rating ([2]; Rate 0.1250 kg/ha): 6.0; ECHCG preemergence herbicidal rating ([2]; Rate 0.2500 kg/ha): 8.0; SETVI preemergence herbicidal rating (SETVI (Setaria viridis); Rate 0.0620 kg/ha): 8.0; SETVI preemergence herbicidal rating (SETVI (Setaria viridis); Rate 0.1250 kg/ha): 8.0; SETVI preemergence herbicidal rating (SETVI (Setaria viridis); Rate 0.2500 kg/ha): 9.0; Postemergence herbicidal rating, GALAP (GALAP (Galium aparine) [3]; rate 0.0320 kg/ha): 5.0; Postemergence herbicidal rating, GALAP (GALAP (Galium aparine) [3]; rate 0.0620 kg/ha): 6.0; Postemergence herbicidal rating, GLXMAW ([4]; rate 0.0320 kg/ha): 7.0; Postemergence herbicidal rating, GLXMAW ([4]; rate 0.0620 kg/ha): 7.5; ORYSAT preemergence herbicidal rating (ORYSAT (Rice, Tebonnet) [5]; Rate 0.0620 kg/ha): 3.0; ORYSAT preemergence herbicidal rating (ORYSAT (Rice, Tebonnet) [5]; Rate 0.1250 kg/ha): 6.0; ORYSAT preemergence herbicidal rating (ORYSAT (Rice, Tebonnet) [5]; Rate 0.2500 kg/ha): 7.0; Postemergence herbicidal rating, CASOB ([6]; rate 0.0320 kg/ha): 4.0; Postemergence herbicidal rating, CASOB ([6]; rate 0.0620 kg/ha): 4.0; Postemergence herbicidal rating, AMBEL ([7]; rate 0.0320 kg/ha): 7.0; Postemergence herbicidal rating, AMBEL ([7]; rate 0.0620 kg/ha): 9.0; Postemergence herbicidal rating, CHEAL ([8]; rate 0.0320 kg/ha): 9.0; Postemergence herbicidal rating, CHEAL ([8]; rate 0.0620 kg/ha): 9.0; Postemergence herbicidal rating, ABUTH ([9]; rate 0.0320 kg/ha): 9.0; Postemergence herbicidal rating, ABUTH ([9]; rate 0.0620 kg/ha): 9.0; Postemergence herbicidal rating, ORYSAT (ORYSAT (Rice, Tebonnet) [10]; rate 0.0320 kg/ha): 5.0; Postemergence herbicidal rating, ORYSAT (ORYSAT (Rice, Tebonnet) [10]; rate 0.0620 kg/ha): 6.5; TRZAWR preemergence herbicidal rating ([11]; Rate 0.0620 kg/ha): 2.0; TRZAWR preemergence herbicidal rating ([11]; Rate 0.1250 kg/ha): 5.0; TRZAWR preemergence herbicidal rating ([11]; Rate 0.2500 kg/ha): 7.0; Postemergence herbicidal rating, IPOHE ([12]; rate 0.0320 kg/ha): 9.0; Postemergence herbicidal rating, IPOHE ([12]; rate 0.0620 kg/ha): 9.0

Question: Which results are given for `Cn1c(C(F)(F)F)cc(=O)n(-c2ccc3snc(-c4cccs4)c3c2)c1=O` [Compound 3, 1-methyl-3-[3-(2-thienyl)-1,2-benzisothiazol-5-yl]-6-(trifluoromethyl)uracil]?
Answer: Postemergence herbicidal rating, ZEAMX (ZEAMX (Corn, Field); rate 0.0320 kg/ha): 5.0; Postemergence herbicidal rating, ZEAMX (ZEAMX (Corn, Field); rate 0.0620 kg/ha): 5.5; Postemergence herbicidal rating, ZEAMX (ZEAMX (Corn, Field); rate 0.1250 kg/ha): 6.5; GALAP preemergence herbicidal rating (GALAP (Galium aparine) [1]; Rate 0.0620 kg/ha): 9.0; GALAP preemergence herbicidal rating (GALAP (Galium aparine) [1]; Rate 0.1250 kg/ha): 9.0; GALAP preemergence herbicidal rating (GALAP (Galium aparine) [1]; Rate 0.2500 kg/ha): 9.0; ECHCG preemergence herbicidal rating ([2]; Rate 0.0620 kg/ha): 7.5; ECHCG preemergence herbicidal rating ([2]; Rate 0.1250 kg/ha): 7.0; ECHCG preemergence herbicidal rating ([2]; Rate 0.2500 kg/ha): 9.0; SETVI preemergence herbicidal rating (SETVI (Setaria viridis); Rate 0.0620 kg/ha): 9.0; SETVI preemergence herbicidal rating (SETVI (Setaria viridis); Rate 0.1250 kg/ha): 8.5; SETVI preemergence herbicidal rating (SETVI (Setaria viridis); Rate 0.2500 kg/ha): 9.0; Postemergence herbicidal rating, GALAP (GALAP (Galium aparine) [3]; rate 0.0320 kg/ha): 5.0; Postemergence herbicidal rating, GALAP (GALAP (Galium aparine) [3]; rate 0.0620 kg/ha): 4.0; Postemergence herbicidal rating, GALAP (GALAP (Galium aparine) [3]; rate 0.1250 kg/ha): 6.0; Postemergence herbicidal rating, GLXMAW ([4]; rate 0.0320 kg/ha): 6.0; Postemergence herbicidal rating, GLXMAW ([4]; rate 0.0620 kg/ha): 6.5; Postemergence herbicidal rating, GLXMAW ([4]; rate 0.1250 kg/ha): 8.5; ORYSAT preemergence herbicidal rating (ORYSAT (Rice, Tebonnet) [5]; Rate 0.0620 kg/ha): 6.0; ORYSAT preemergence herbicidal rating (ORYSAT (Rice, Tebonnet) [5]; Rate 0.1250 kg/ha): 5.0; ORYSAT preemergence herbicidal rating (ORYSAT (Rice, Tebonnet) [5]; Rate 0.2500 kg/ha): 5.0; Postemergence herbicidal rating, CASOB ([6]; rate 0.0320 kg/ha): 4.0; Postemergence herbicidal rating, CASOB ([6]; rate 0.0620 kg/ha): 5.0; Postemergence herbicidal rating, CASOB ([6]; rate 0.1250 kg/ha): 9.0; Postemergence herbicidal rating, AMBEL ([7]; rate 0.0320 kg/ha): 9.0; Postemergence herbicidal rating, AMBEL ([7]; rate 0.0620 kg/ha): 9.0; Postemergence herbicidal rating, AMBEL ([7]; rate 0.1250 kg/ha): 9.0; Postemergence herbicidal rating, CHEAL ([8]; rate 0.0320 kg/ha): 9.0; Postemergence herbicidal rating, CHEAL ([8]; rate 0.0620 kg/ha): 9.0; Postemergence herbicidal rating, CHEAL ([8]; rate 0.1250 kg/ha): 9.0; Postemergence herbicidal rating, ABUTH ([9]; rate 0.0320 kg/ha): 9.0; Postemergence herbicidal rating, ABUTH ([9]; rate 0.0620 kg/ha): 9.0; Postemergence herbicidal rating, ABUTH ([9]; rate 0.1250 kg/ha): 9.0; Postemergence herbicidal rating, ORYSAT (ORYSAT (Rice, Tebonnet) [10]; rate 0.0320 kg/ha): 3.0; Postemergence herbicidal rating, ORYSAT (ORYSAT (Rice, Tebonnet) [10]; rate 0.0620 kg/ha): 4.0; Postemergence herbicidal rating, ORYSAT (ORYSAT (Rice, Tebonnet) [10]; rate 0.1250 kg/ha): 4.5; TRZAWR preemergence herbicidal rating ([11]; Rate 0.0620 kg/ha): 4.0; TRZAWR preemergence herbicidal rating ([11]; Rate 0.1250 kg/ha): 5.0; TRZAWR preemergence herbicidal rating ([11]; Rate 0.2500 kg/ha): 6.0; Postemergence herbicidal rating, IPOHE ([12]; rate 0.0320 kg/ha): 9.0; Postemergence herbicidal rating, IPOHE ([12]; rate 0.0620 kg/ha): 9.0; Postemergence herbicidal rating, IPOHE ([12]; rate 0.1250 kg/ha): 9.0
